Residues, ends and D or L forms follow the SMILES beside them. *: point of attachment. X1 = O=C1NC(=O)/C(=C/c2cccc(OCC(=O)*)c2)S1; 4Abz = Nc1ccc(C(=O)O)cc1

The values that follow come from patent publication US7879893B2, “Ligands for the HisB10 Zn2 + sites of the R-state insulin hexamer” (Novo Nordisk A/S, priority 2001, dated 2011).

A short description of one data set: Disappearance rate from the subcutaneous depot following subcutaneous injection in pigs (T50% of A14 Tyr(125I) insulin). Format: in vivo, pig. Particulars: Asp^B28 human insulin, ligand added in concentrations lower than that of Zn2+, s.c. An excerpt: The slow release (prolonged action) properties of certain formulations of the present invention was characterized by the disappearance rate from the subcutaneous depot following subcutaneous injections in pigs. T50% is the time when 50% of the A14 Tyr(^125I) insulin has disappeared from the site of injection as measured with an external γ-counter (Ribel et al., The Pig as a Model for Subcutaneous Absorption in Man. In: M. Serrano-Rtios and P. J. Lefebre (Eds): Diabetes (1985) Proceedings of the 12th congress of the International Diabetes Federation, Madrid, Spain, 1985 (Excerpta Medica, Amsterdam (1986), 891-896). The composition of a series of protracted formulations is given in the table below together with the T50% values. The disappearance curves are illustrated in FIG. 3a-d. For comparison, the T50% for the corresponding insulin preparations formulated without the ligands would be about 2 hours.
The induction of slow release by addition of exogenous ligands of the invention affords further advantages in terms of versatility regarding the choice of insulin species and release patterns. Consequently, human or mutant insulins such as Asp^B28, Lys^B28Pro^B29, or Gly^A21Lys^B3Glu^B29 may be formulated as slow- or dual-release preparations by adding variable amounts of His^B10Zn^2+-site ligand. […]
In the case of `N=C(N)NCCC[C@H](NC(=O)[C@H](CCCNC(=N)N)NC(=O)[C@H](CCCNC(=N)N)NC(=O)[C@H](CCCNC(=N)N)NC(=O)[C@H](CCCNC(=N)N)NC(=O)CNC(=O)CNC(=O)c1ccc(NC(=O)COc2cccc(/C=C3\SC(=O)NC3=O)c2)cc1)C(N)=O` [TZD-Abz-G2R5, 4-{2-[3-(2,4-Dioxothiazolidin-5-ylidenemethyl)phenoxy]acetylamino}benzoyl-Gly2-Arg5-NH2] ({X1-4Abz}-GGRRRRR-NH2), the “release pattern of the formulation” value is reported as “distinctly dual-release formulation”.

Staying with this data set, now noted: Asp^B28 human insulin, ligand added in slight excess of the Zn2+ concentration, s.c.
For the compound `N=C(N)NCCC[C@H](NC(=O)[C@H](CCCNC(=N)N)NC(=O)[C@H](CCCNC(=N)N)NC(=O)[C@H](CCCNC(=N)N)NC(=O)[C@H](CCCNC(=N)N)NC(=O)CNC(=O)CNC(=O)c1ccc(NC(=O)COc2cccc(/C=C3\SC(=O)NC3=O)c2)cc1)C(N)=O` [TZD-Abz-G2R5, 4-{2-[3-(2,4-Dioxothiazolidin-5-ylidenemethyl)phenoxy]acetylamino}benzoyl-Gly2-Arg5-NH2] ({X1-4Abz}-GGRRRRR-NH2), the T50% result is given as “about 14.8”.

Assay in another data set: not given
Settings: not given
For `O=C1NC(=O)/C(=C/C(Cl)=C/c2ccccc2)S1`, the melting point lay within 251 to 254 °C.
`CC(/C=C1\SC(=O)NC1=O)=C\c1ccccc1` returned a melting point of 203 to 210 °C.
On the same count and under the same terms, the result for `CN(C)c1ccc(/C=C/C=C2\SC(=O)NC2=O)cc1` reads 259 to 263 °C; that for `O=C1NC(=O)/C(=C/c2cc3ccccc3o2)S1`, 265 to 266 °C; that for `COc1cccc(OC)c1/C=C1\SC(=O)NC1=O`, 241 to 242 °C.
With `O=C1NC(=O)/C(=C/c2cc3ccccc3[nH]c2=O)S1`, the melting point lay in the range of 338 to 347 °C.
`O=C1NC(=O)C(=Cc2c[nH]c3ccc([N+](=O)[O-])cc23)S1` showed a melting point of 330 to 333 °C.
`COc1cc(/C=C2\SC(=O)NC2=O)cc(I)c1O` had a melting point of 256 °C.
`COc1cc(O)cc(OC)c1/C=C1\SC(=O)NC1=O` gave a melting point of 331 to 333 °C.
Compound `O=C1NC(=O)/C(=C/c2c(Cl)cccc2Cl)S1` registered a melting point of 152 to 154 °C.
Still for that read-out and setting: the result for `c1cc(COc2ccc3ccccc3c2)cc(-c2nnn[nH]2)c1` reads 200 to 202 °C; that for `O=C1NC(=O)/C(=C/c2ccc3cc(O)ccc3c2)S1`, 310 to 314 °C.
Regarding `Cc1cccc(C)c1/C=C1\SC(=O)NC1=O`, the melting point lay within 104 to 105 °C.

Assay in another data set: not given
Particulars: inherent limitation, background statement; cited from earlier work.
In the case of “soluble human insulin hexamer: "inherent limitation of the absorption half-life to about 4 hours for a soluble human insulin hexamer"”, the absorption half-life entry is reported as “about 4 hours”.

Staying with this data set, now noted: soluble preparations, background statement; cited from earlier work.
Consider “Co^3+-hexamer: "absorption rates vary between about 1 hour (for rapid-acting insulin analogues ...) and about 4 hours (Co^3+-hexamer)"”, for which the “absorption rate (time) after subcutaneous injection” value is “about 4 hours”.
